From patent US5716950A, “Diazacycloalkanealkylsulfonamide derivatives” (Nippon Shoji Kabushiki Kaisha, priority 1994, dated 1998)
Like-named read-outs stand apart in the source and are kept apart here.

What was measured:
[1] = test system: mouse biphasic allergic dermal reaction; test: Mouse Biphasic Allergic Dermal Reaction; format: in vivo, Female Balb/c mice; conditions: for inhibition in vivo at 0.1 mg/kg / inhibition in vivo at 1 mg/kg: Mus musculus, oral
Experimental: Female Balb/c mice (weighing 18 to 25 g) were subjected to passive sensitization by intravenous administration of 1 ml of anti-DNP monoclonal IgE antibody showing 1:1024 of antibody titer. 24 hours after the sensitization, 25 μl of 0.15% dinitrofluorobenzene (DNFB) were applied to both sides of right and left auricles of mouse for inducing allergic reactions. Thickness of auricles were measured using Dial Thickness Gauge before the challenge with DNFB, and 1 and 24 hours after the challenge. And then, increase in thickness of auricles at 1 hour after the challenge (edema caused by immediate allergic reaction) and that at 24 hours after the challenge (edema caused by late allergic reaction) were calculated against the thickness of auricles before the challenge with DNFB, respectively.
Suppression rate was expressed by relative ratio (%) to the value in control in which a solvent was administered.
Test compounds, diphenhydramine which is a existing classical antihistamic drug, amlexanox which is an antiallergic drug and dexamethasone which is a steroidal drug were administered orally (partly intraperitoneally) once before antigen challenge.
The above test was performed by using a mouse biphasic allergic dermal reaction model which was a new model [see, Sakurai T, Inagaki, N. and Nagai, H Life Sci., 54, PL291-295 (1994)]. In this model, the immediate allergic reaction was induced by mediator release from mast cell at 1 hour after the challenge, and the late allergic reaction with inflammatory cells such as eosinophil (edema after 24 hours) was induced after 24 hours from the challenge.

[2] = test system: passive cutaneous anaphylaxis (PCA); test: Activity of suppressing passive cutaneous anaphylaxis (PCA); format: in vivo, Male Wistar rats; conditions: Rattus norvegicus, po, 1 h, 10 mg/kg-po, 1 hour before antigen challenge; read-out: % suppression of rat PCA
Experimental: Test compounds were examined on their antiallergic activities. […] After 48 hours, 1.0 ml of 0.5 % Evans Blue saline solution containing DNP.BSA (1 mg in protein) was injected through the tail vein to induce allergic reaction. After 30 minutes, the rats were sacrificed by bleeding and the skin of back where dye was leaked out was flayed and put it into 20 ml test tube with ground stopper. Thereto was added 1.0 ml of 1N KOH aqueous solution and then it was allowed to stand at 37° C. in incubator overnight for lysing. To this solution was added 8.3 ml of a mixture of acetone and 0.6N phosphoric acid (13:5) and the mixture was mixed well and then was filtered to remove the insoluble materials.
The test compounds were administered orally 1 hour before the antigen challenge. Suppression rate was expressed by percentage to the value in control where 0.5% aqueous methylcellulose solution was orally administered.

[3] = test system: extracted ileum (histamine contraction); test: Antihistaminic activity: suppression of histamine-induced contraction of extracted ileum; set-up: species or system Female Hartley guinea pig; conditions: histamine 3×10^-7 M; guinea pig ileum; 50% suppression of contraction; read-out: anti-His in extracted ileum EC50
Experimental: Female Hartley guinea pig (weighing 500 to 650 g) were sacrificed and the ileum (length of about 10 to 25 cm) was extracted from the ileocecum to prepare a specimen (length of 3 cm). […] After allowing to stand for 60 minutes to make the specimen stable, a histamine (3×10^-7 M) was applied to the specimen at single application. Contraction of the specimen was determined and recorded using isotonic transducer. After repeating application of a histamine to make the contraction constant, a diluted solution of the test compound was applied. Three minutes after the application, a histamine was then added and an activity of suppressing contraction was examined.

[4] = test system: male ICR mice; test: Toxicity Test (mouse acute toxicity, minimum lethal dose); format: in vivo; conditions: po, observed for 24 hours, head prints (10 mg/kg-po)
Source text: The test compounds were orally administered to male ICR mice (weighing to 30 g) after fasting overnight. […] The results were expressed by minimum lethal dose. Toxicity of any compounds of the present invention were weaker than that of ketotifen which was a reference compound.

[5] = 1 h, read-out: immediate edema (1 hr) suppression (%)
[6] = 24 h, read-out: late edema (24 hr) suppression (%)

For O=S(=O)(CCCCCCN1CCN(C(c2ccccc2)c2ccc(Cl)cc2)CC1)NC1CCC1 (centres unmarked) [Example 128], the inhibition in vivo at 0.1 mg/kg [1, 5] was 32%, the inhibition in vivo at 1 mg/kg [1, 5] was 28% and the inhibition in vivo at 0.1 mg/kg [1, 6] was 36%. The inhibition in vivo at 1 mg/kg [1, 6] was 40%, the “suppression of the late allergic reaction (in words)” value ([1]; edema after 24 hours) was “showed strong activity of suppressing the late allergic reaction” and the inhibition in vivo at 10 mg/kg [2] was 86.1%. For the same compound, the EC50 [3] was 320 nM and the “mouse acute toxicity (lethal dose)” value [4] was > 500 mg/kg.
